Measured values reported in ChEMBL document CHEMBL3580592, “Combretastatin A-4 inspired novel 2-aryl-3-arylamino-imidazo-pyridines/pyrazines as tubulin polymerization inhibitors, antimitotic and anticancer agents” (Medchemcomm, 2014).
Active and inactive are the calls of the source. No cut-off for these calls is given here.

Key:
Tubulin = assay: Inhibition of tubulin polymerization in HEK293T cell lysate after 15 mins by spectrophotometry; assay type: cell-free, Homo sapiens; conditions: hek-293t
[1] = Cytotoxicity against African green monkey Vero cells assessed as cell death by MTT assay; assay type: cell-based; conditions: chlorocebus sabaeus, read-out: LC50 (the source's name)
HEK-293T [2] = assay: Cytotoxicity against human HEK293T cells assessed as cell death by MTT assay; assay type: functional; conditions: read-out: LC50 (the source's name)
Tubulin (Homo sapiens) = Tubulin (Homo sapiens) (UniProt P68371+Q9H4B7+P0DPH7+P68366+Q13509+Q71U36+P04350+Q3ZCM7+P07437+P68363+Q9BQE3+Q6PEY2+Q13885+Q9BVA1+Q9BUF5); assay: Inhibition of tubulin assembly in HEK293T cells assessed as formation of abnormal mitotic spindles at LC50 after 24 hrs by immunofluorescence based confocal microscopy; assay type: cell-based; conditions: HEK-293T
SiHa [3] = assay: Cytotoxicity against human SiHa cells assessed as cell death after 24 hrs by MTT assay; assay type: functional; conditions: read-out: LC50 (the source's name)
SiHa [4] = assay: Cytotoxicity against human SiHa cells assessed as cell death after 48 hrs by MTT assay; assay type: functional; conditions: read-out: LC50 (the source's name)
MCF7 [5] = assay: Cytotoxicity against human MCF7 cells assessed as cell death after 24 hrs by MTT assay; assay type: functional; conditions: MCF7, 24 h, read-out: LC50 (the source's name)
MCF7 [6] = assay: Cytotoxicity against human MCF7 cells assessed as cell death after 48 hrs by MTT assay; assay type: functional; conditions: MCF7, 48 h, read-out: LC50 (the source's name)
HEK-293T [7] = assay: Cytotoxicity against human HEK293T cells assessed as cell death after 24 hrs by MTT assay; assay type: functional; conditions: read-out: LC50 (the source's name)
HEK-293T [8] = assay: Cytotoxicity against human HEK293T cells assessed as cell death after 48 hrs by MTT assay; assay type: functional; conditions: read-out: LC50 (the source's name)
HeLa [9] = assay: Cytotoxicity against human HeLa cells assessed as cell death after 24 hrs by MTT assay; assay type: functional; conditions: read-out: LC50 (the source's name)
HeLa [10] = assay: Cytotoxicity against human HeLa cells assessed as cell death after 48 hrs by MTT assay; assay type: functional; conditions: read-out: LC50 (the source's name)
HEK-293T [11] = assay: Cytotoxicity against human HEK293T cells assessed as inhibition of colony formation at LC50 after 24 hrs by crystal violet staining based clonogenic cell survival assay; assay type: functional
HEK293 = assay: Inhibition of anchorage-dependent HEK293T cell migration at LC50 after 6 to 24 hrs by wound healing assay; assay type: functional, cell-based; conditions: Homo sapiens
HEK-293T [12] = assay: Induction of cell cycle arrest in HEK293T cells assessed as cells accumulation at G2/M phase at LC50 after 24 hrs by PI staining-based FACS scan flow cytometry (reference value: 22.2 +/- 1.5%); assay type: functional, Homo sapiens
HEK-293T [13] = assay: Induction of apoptosis in HEK293T cells assessed as chromatin condensation and nuclear fragmentation at LC50 after 24 hrs by DAPI staining-based fluorescent microscopy; assay type: functional, cell-based; conditions: Homo sapiens
HEK-293T [14] = assay: Induction of apoptosis in HEK293T cells assessed as apoptotic nuclei at LC50 after 24 hrs by DAPI staining-based fluorescent microscopy; assay type: functional, cell-based; conditions: Homo sapiens
HEK-293T [15] = assay: Induction of apoptosis in HEK293T cells assessed as increase in p53 expression at LC50 after 24 hrs by Western blot analysis; assay type: functional, cell-based; conditions: Homo sapiens
HEK-293T [16] = assay: Induction of apoptosis in HEK293T cells assessed as reduction in PARP level at LC50 after 24 hrs by Western blot analysis; assay type: functional, cell-based; conditions: Homo sapiens
HEK-293T [17] = assay: Induction of apoptosis in HEK293T cells assessed as activation of caspase 3 at LC50 after 24 hrs by immunocytochemical analysis; assay type: functional, cell-based; conditions: Homo sapiens
HEK-293T [18] = assay: Induction of DNA damage in HEK293T cells assessed as increase in comet length at LC50 after 24 hrs by Comet assay relative to untreated control; assay type: functional, cell-based; conditions: Homo sapiens
HEK-293T [19] = assay: Induction of chromosomal damage in HEK293T cells assessed as micronuclei formation at LC50 after 24 hrs by cytokinesis-block micronucleus assay relative to untreated control; assay type: functional, cell-based; conditions: Homo sapiens

## COc1ccc(-c2nc3cccc(C)n3c2Nc2cc(OC)c(OC)c(OC)c2)cc1O
Tubulin
  IC50: 38 µM
[1]
  CC50: 74 µM
HEK-293T [2]
  CC50: 63 µM

## COc1ccc(-c2nc3cc(C)ccn3c2Nc2cc(OC)c(OC)c(OC)c2)cc1O
Tubulin
  IC50: 10 µM
Tubulin (Homo sapiens)
  inhibition: Active
[1]
  CC50: 48 µM
HEK-293T [2]
  CC50: 8 µM
SiHa [3]
  CC50: 4 µM
SiHa [4]
  CC50: 1.5 µM
MCF7 [5]
  CC50: 15 µM
MCF7 [6]
  CC50: 10 µM
HEK-293T [7]
  CC50: 8 µM
HEK-293T [8]
  CC50: 3 µM
HeLa [9]
  CC50: 15 µM
HeLa [10]
  CC50: 7 µM
HEK-293T [11]
  inhibition: Active
HEK293
  inhibition: Active
HEK-293T [12]
  Activity: 36.6%
HEK-293T [13]
  Activity: Active
HEK-293T [14]
  Activity: Active
HEK-293T [15]
  Activity: Active
HEK-293T [16]
  Activity: Active
HEK-293T [17]
  Activity: Active
HEK-293T [18]
  Activity: Active
HEK-293T [19]
  Activity: Active

## COc1cc(Nc2c(-c3ccc(F)cc3)nc3cnccn23)cc(OC)c1OC
Tubulin
  IC50: 36 µM
[1]
  CC50: 48 µM
HEK-293T [2]
  CC50: 36 µM

## COc1ccc(Nc2c(-c3ccc(OC)cc3)nc3ccccn23)cc1
Tubulin
  IC50: 34 µM
[1]
  CC50: 54 µM
HEK-293T [2]
  CC50: 34 µM

## COc1ccc(Nc2c(-c3ccc(OC)c(O)c3)nc3cnccn23)cc1
Tubulin
  IC50: 38 µM
[1]
  CC50: 62 µM
HEK-293T [2]
  CC50: 38 µM

## COc1ccc(-c2nc3ccccn3c2Nc2cc(OC)c(OC)c(OC)c2)cc1O
Tubulin
  IC50: 12 µM
Tubulin (Homo sapiens)
  inhibition: Active
[1]
  CC50: 50 µM
HEK-293T [2]
  CC50: 10 µM
SiHa [3]
  CC50: 5 µM
SiHa [4]
  CC50: 2 µM
MCF7 [5]
  CC50: 20 µM
MCF7 [6]
  CC50: 12 µM
HEK-293T [7]
  CC50: 10 µM
HEK-293T [8]
  CC50: 5 µM
HeLa [9]
  CC50: 15 µM
HeLa [10]
  CC50: 10 µM
HEK-293T [11]
  inhibition: Active
HEK293
  inhibition: Active
HEK-293T [12]
  Activity: 33.6%
HEK-293T [13]
  Activity: Active
HEK-293T [14]
  Activity: Active
HEK-293T [15]
  Activity: Active
HEK-293T [16]
  Activity: Active
HEK-293T [17]
  Activity: Active
HEK-293T [18]
  Activity: Active
HEK-293T [19]
  Activity: Active

## COc1ccc(Nc2c(-c3cccc(B(O)O)c3)nc3ccccn23)cc1
Tubulin
  IC50: 48 µM
[1]
  CC50: 58 µM
HEK-293T [2]
  CC50: 48 µM

## COc1ccc(-c2nc3sccn3c2Nc2cc(OC)c(OC)c(OC)c2)cc1O
Tubulin
  IC50: 36 µM
[1]
  CC50: 62 µM
HEK-293T [2]
  CC50: 36 µM

## COc1ccc(Nc2c(-c3ccc(Cl)cc3)nc3cnccn23)cc1
Tubulin
  IC50: 46 µM
[1]
  CC50: 45 µM
HEK-293T [2]
  CC50: 34 µM

## COc1ccc(Nc2c(-c3cccc(O)c3)nc3ccccn23)cc1
Tubulin
  IC50: 42 µM
[1]
  CC50: 74 µM
HEK-293T [2]
  CC50: 47 µM

## COc1ccc(Nc2c(-c3cc(OC)c(OC)c(OC)c3)nc3ccccn23)cc1
Tubulin
  IC50: 14 µM
Tubulin (Homo sapiens)
  inhibition: Active
[1]
  CC50: 65 µM
HEK-293T [2]
  CC50: 10 µM
SiHa [3]
  CC50: 5 µM
SiHa [4]
  CC50: 2 µM
MCF7 [5]
  CC50: 8 µM
MCF7 [6]
  CC50: 5 µM
HEK-293T [7]
  CC50: 10 µM
HEK-293T [8]
  CC50: 5 µM
HeLa [9]
  CC50: 9 µM
HeLa [10]
  CC50: 5 µM
HEK-293T [11]
  inhibition: Active
HEK293
  inhibition: Active
HEK-293T [12]
  Activity: 40.7%
HEK-293T [13]
  Activity: Active
HEK-293T [14]
  Activity: Active
HEK-293T [15]
  Activity: Active
HEK-293T [16]
  Activity: Active
HEK-293T [17]
  Activity: Active
HEK-293T [18]
  Activity: Active
HEK-293T [19]
  Activity: Active

## COc1ccc(Nc2c(-c3ccc(OC)c(O)c3)nc3ncccn23)cc1
Tubulin
  IC50: 54 µM
[1]
  CC50: 56 µM
HEK-293T [2]
  CC50: 54 µM

## COc1cc(Nc2c(-c3cccc(O)c3)nc3cnccn23)cc(OC)c1OC
Tubulin
  IC50: 39 µM
[1]
  CC50: 63 µM
HEK-293T [2]
  CC50: 42 µM

## COc1ccc(-c2nc3cnccn3c2Nc2cc(OC)c(OC)c(OC)c2)cc1
Tubulin
  IC50: 40 µM
[1]
  CC50: 75 µM
HEK-293T [2]
  CC50: 54 µM

## COc1cc(Nc2c(C3C=Nc4ccccc43)nc3cnccn23)cc(OC)c1OC (stereo not drawn)
Tubulin
  IC50: 11 µM
Tubulin (Homo sapiens)
  inhibition: Active
[1]
  CC50: 70 µM
HEK-293T [2]
  CC50: 12 µM
SiHa [3]
  CC50: 7 µM
SiHa [4]
  CC50: 3 µM
MCF7 [5]
  CC50: 18 µM
MCF7 [6]
  CC50: 6 µM
HEK-293T [7]
  CC50: 12 µM
HEK-293T [8]
  CC50: 3 µM
HeLa [9]
  CC50: 17 µM
HeLa [10]
  CC50: 9 µM
HEK-293T [11]
  inhibition: Active
HEK293
  inhibition: Active
HEK-293T [12]
  Activity: 87.4%
HEK-293T [13]
  Activity: Active
HEK-293T [14]
  Activity: Active
HEK-293T [15]
  Activity: Active
HEK-293T [16]
  Activity: Active
HEK-293T [17]
  Activity: Active
HEK-293T [18]
  Activity: Active
HEK-293T [19]
  Activity: Active

## COc1cc(Nc2c(-c3ccc(Cl)cc3)nc3cnccn23)cc(OC)c1OC
Tubulin
  IC50: 32 µM
[1]
  CC50: 32 µM
HEK-293T [2]
  CC50: 25 µM

## COc1ccc(/C=C\c2cc(OC)c(OC)c(OC)c2)cc1O [COMBRETASTATIN A4]
[1]
  CC50: 11 µM
HEK-293T [2]
  CC50: 8 µM
SiHa [3]
  CC50: 0.6 µM
SiHa [4]
  CC50: 0.2 µM
MCF7 [5]
  CC50: 7 µM
MCF7 [6]
  CC50: 2 µM
HEK-293T [7]
  CC50: 8 µM
HEK-293T [8]
  CC50: 0.2 µM
HeLa [9]
  CC50: 6 µM
HeLa [10]
  CC50: 0.8 µM
HEK-293T [13]
  Activity: Active
HEK-293T [14]
  Activity: Active
HEK-293T [15]
  Activity: Active
HEK-293T [16]
  Activity: Active
HEK-293T [17]
  Activity: Active
HEK-293T [18]
  Activity: Active
HEK-293T [19]
  Activity: Active

## COc1ccc(-c2nc3sc4ccccc4n3c2Nc2cc(OC)c(OC)c(OC)c2)cc1O
Tubulin
  IC50: 20 µM
[1]
  CC50: 26 µM
HEK-293T [2]
  CC50: 22 µM

## COc1cc(-c2nc3cnccn3c2Nc2cc(OC)c(OC)c(OC)c2)cc(OC)c1O
Tubulin
  IC50: 34 µM
[1]
  CC50: 62 µM
HEK-293T [2]
  CC50: 34 µM

## COc1ccc(Nc2c(-c3ccc(F)cc3)nc3cnccn23)cc1
Tubulin
  IC50: 44 µM
[1]
  CC50: 72 µM
HEK-293T [2]
  CC50: 56 µM

## COc1ccc(-c2nc3cnccn3c2Nc2cc(OC)c(OC)c(OC)c2)cc1O
Tubulin
  IC50: 38 µM
[1]
  CC50: 50 µM
HEK-293T [2]
  CC50: 38 µM
